Results from the supplement of paper PMC10307832.

How the values were obtained:
Experiment in all cases: relative viability (nuclei count vs DMSO), 5 days (fraction); higher = more cells survive
COR-L23 = system: COR-L23
Procedure, shortened: (§1)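 After 5 days of treatment, lung cancer cells in 1536-well plates were fixed and stained in a single step (final 0.05% Triton X-100, 1% formaldehyde, 1 ug/ml Hoechst) and their nuclei counted on 4× images. Treatment had been applied by pin tool the day after seeding as one drug alone or as a fixed anchor-drug dose with five library-drug doses (not always all listed) in √10 steps. Relative viability is the nuclei count of treated wells divided by that of vehicle wells, and values are medians of duplicate plates.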

NCI-H1395 = system: NCI-H1395
Procedure, shortened: as §1

NCI-H1793 = system: NCI-H1793
Procedure, shortened: as §1

NCI-H358 = system: NCI-H358
Procedure, shortened: as §1

NCI-H23 = system: NCI-H23
Procedure, shortened: as §1

HCC-366 = system: HCC-366
Procedure, shortened: as §1

SK-LU-1 = system: SK-LU-1
Procedure, shortened: as §1

HARA = system: HARA
Procedure, shortened: as §1

NCI-H2023 = system: NCI-H2023
Procedure, shortened: as §1

NCI-H1993 = system: NCI-H1993
Procedure, shortened: as §1

EMC-BAC-2 = system: EMC-BAC-2
Procedure, shortened: as §1

HOP-62 = system: HOP-62
Procedure, shortened: as §1

HCC-78 = system: HCC-78
Procedure, shortened: as §1

NCI-H2405 = system: NCI-H2405
Procedure, shortened: as §1

NCI-H1944 = system: NCI-H1944
Procedure, shortened: as §1

HCC-15 = system: HCC-15
Procedure, shortened: as §1

NCI-H838 = system: NCI-H838
Procedure, shortened: as §1

NCI-H2228 = system: NCI-H2228
Procedure, shortened: as §1

NCI-H2126 = system: NCI-H2126
Procedure, shortened: as §1

ABC-1 = system: ABC-1
Procedure, shortened: as §1

LC-2-ad = system: LC-2-ad
Procedure, shortened: as §1

Cc1sc2c(c1C)C(c1ccc(Cl)cc1)=N[C@@H](CC(=O)OC(C)(C)C)c1nnc(C)n1-2 [JQ1] + C[C@]1(O)C[C@@H](c2nc(-c3ccc4ccc(-c5ccccc5)nc4c3)c3c(N)nccn32)C1 [Linsitinib] (partner 1 µM)
relative viability (COR-L23; first compound 0.04 µM): 0.931
relative viability (COR-L23; first compound 0.1265 µM): 0.74
relative viability (COR-L23; first compound 0.4 µM): 0.818
relative viability (COR-L23; first compound 1.265 µM): 0.226
relative viability (COR-L23; first compound 4 µM): 0.172
relative viability (NCI-H1395; first compound 0.04 µM): 0.983
relative viability (NCI-H1395; first compound 0.1265 µM): 0.797
relative viability (NCI-H1395; first compound 0.4 µM): 0.788
relative viability (NCI-H1395; first compound 1.265 µM): 0.562
relative viability (NCI-H1395; first compound 4 µM): 0.486
relative viability (NCI-H1793; first compound 0.04 µM): 0.936
relative viability (NCI-H1793; first compound 0.1265 µM): 0.755
relative viability (NCI-H1793; first compound 0.4 µM): 0.923
relative viability (NCI-H1793; first compound 1.265 µM): 0.715
relative viability (NCI-H1793; first compound 4 µM): 0.952
relative viability (NCI-H358; first compound 0.04 µM): 0.645
relative viability (NCI-H358; first compound 0.1265 µM): 0.829
relative viability (NCI-H358; first compound 0.4 µM): 0.715
relative viability (NCI-H358; first compound 1.265 µM): 0.442
relative viability (NCI-H358; first compound 4 µM): 0.45
relative viability (NCI-H23; first compound 0.04 µM): 0.513
relative viability (NCI-H23; first compound 0.1265 µM): 0.555
relative viability (NCI-H23; first compound 0.4 µM): 0.385
relative viability (NCI-H23; first compound 1.265 µM): 0.339
relative viability (NCI-H23; first compound 4 µM): 0.288
relative viability (HCC-366; first compound 0.04 µM): 0.6
relative viability (HCC-366; first compound 0.4 µM): 0.639
relative viability (HCC-366; first compound 1.265 µM): 0.326
relative viability (HCC-366; first compound 4 µM): 0.193
relative viability (SK-LU-1; first compound 0.04 µM): 1.16
relative viability (SK-LU-1; first compound 0.1265 µM): 0.952
relative viability (SK-LU-1; first compound 0.4 µM): 0.782
relative viability (SK-LU-1; first compound 1.265 µM): 0.239
relative viability (SK-LU-1; first compound 4 µM): 0.178
relative viability (HARA; first compound 0.04 µM): 0.902
relative viability (HARA; first compound 0.1265 µM): 0.624
relative viability (HARA; first compound 0.4 µM): 0.399
relative viability (HARA; first compound 1.265 µM): 0.205
relative viability (HARA; first compound 4 µM): 0.163
relative viability (NCI-H2023; first compound 0.04 µM): 0.653
relative viability (NCI-H2023; first compound 0.1265 µM): 0.576
relative viability (NCI-H2023; first compound 0.4 µM): 0.379
relative viability (NCI-H2023; first compound 1.265 µM): 0.207
relative viability (NCI-H2023; first compound 4 µM): 0.157
relative viability (NCI-H1993; first compound 0.04 µM): 0.729
relative viability (NCI-H1993; first compound 0.1265 µM): 0.855
relative viability (NCI-H1993; first compound 0.4 µM): 0.809
relative viability (NCI-H1993; first compound 1.265 µM): 0.829
relative viability (NCI-H1993; first compound 4 µM): 0.736
relative viability (EMC-BAC-2; first compound 0.04 µM): 0.815
relative viability (EMC-BAC-2; first compound 0.1265 µM): 0.812
relative viability (EMC-BAC-2; first compound 0.4 µM): 0.659
relative viability (EMC-BAC-2; first compound 1.265 µM): 0.444
relative viability (EMC-BAC-2; first compound 4 µM): 0.47
relative viability (HOP-62; first compound 0.04 µM): 1.01
relative viability (HOP-62; first compound 0.1265 µM): 0.869
relative viability (HOP-62; first compound 0.4 µM): 0.694
relative viability (HOP-62; first compound 1.265 µM): 0.11
relative viability (HOP-62; first compound 4 µM): 0.106
relative viability (HCC-78; first compound 0.04 µM): 0.536
relative viability (HCC-78; first compound 0.1265 µM): 0.438
relative viability (HCC-78; first compound 0.4 µM): 0.403
relative viability (HCC-78; first compound 1.265 µM): 0.255
relative viability (HCC-78; first compound 4 µM): 0.249
relative viability (NCI-H2405; first compound 0.04 µM): 0.919
relative viability (NCI-H2405; first compound 0.4 µM): 0.779
relative viability (NCI-H2405; first compound 1.265 µM): 0.535
relative viability (NCI-H2405; first compound 4 µM): 0.537
relative viability (NCI-H1944; first compound 0.04 µM): 1.15
relative viability (NCI-H1944; first compound 0.1265 µM): 0.874
relative viability (NCI-H1944; first compound 0.4 µM): 0.922
relative viability (NCI-H1944; first compound 1.265 µM): 0.623
relative viability (NCI-H1944; first compound 4 µM): 0.557
relative viability (HCC-15; first compound 0.04 µM): 0.732
relative viability (HCC-15; first compound 0.4 µM): 0.769
relative viability (HCC-15; first compound 1.265 µM): 0.542
relative viability (HCC-15; first compound 4 µM): 0.476
relative viability (NCI-H838; first compound 0.04 µM): 0.954
relative viability (NCI-H838; first compound 0.1265 µM): 0.543
relative viability (NCI-H838; first compound 0.4 µM): 0.74
relative viability (NCI-H838; first compound 1.265 µM): 0.307
relative viability (NCI-H838; first compound 4 µM): 0.229
relative viability (NCI-H2228; first compound 0.04 µM): 1
relative viability (NCI-H2228; first compound 0.1265 µM): 0.743
relative viability (NCI-H2228; first compound 0.4 µM): 0.688
relative viability (NCI-H2228; first compound 1.265 µM): 0.404
relative viability (NCI-H2228; first compound 4 µM): 0.357
relative viability (NCI-H2126; first compound 0.04 µM): 0.725
relative viability (NCI-H2126; first compound 0.1265 µM): 1.52
relative viability (NCI-H2126; first compound 0.4 µM): 0.651
relative viability (NCI-H2126; first compound 1.265 µM): 0.559
relative viability (NCI-H2126; first compound 4 µM): 0.432
relative viability (ABC-1; first compound 0.04 µM): 0.716
relative viability (ABC-1; first compound 0.1265 µM): 0.772
relative viability (ABC-1; first compound 0.4 µM): 0.564
relative viability (ABC-1; first compound 1.265 µM): 0.356
relative viability (ABC-1; first compound 4 µM): 0.275
relative viability (LC-2-ad; first compound 0.04 µM): 0.753
relative viability (LC-2-ad; first compound 0.1265 µM): 0.773
relative viability (LC-2-ad; first compound 0.4 µM): 0.463
relative viability (LC-2-ad; first compound 1.265 µM): 0.253
relative viability (LC-2-ad; first compound 4 µM): 0.265
